In patent publication US8026069B2, “Process for identification of compounds for modulating the activity of sodium/calcium exchange transporter” (Sanofi-Aventis Deutschland GmbH, priority 2004, dated 2011):

Target: T1, NCX1-containing HEK membrane fragments (human cardiac sodium calcium exchanger NCX-1) (Homo sapiens, UniProt P32418)
T1 construct: expressed in transfected cells; host or cells: HEK-293 (Flp-In T-Rex-293-NCX1, DSM ACC2670), doxycycline-induced; membrane fragments
Experiment: cell free electrophysiological sensor chip (SurfE2R) NCX assay, current on Ca2+ concentration jump
Type: biochemical
Conditions: 5 mM
Method: 10-30 μl, for example, of NCX-containing membrane fragments were applied and circulated on the sensor chip and preferably incubated for at least 12 hours at 4° C. In preferred cases of experiments the NCX protein is a human NCX1 protein. The capacitance of the protein-loaded sensor chip was preferably around 100 nF cm^−2 and the conductance G1s preferably around 10 nS cm^−2. The principal of the assay is to test the electrical activity of NCX protein in the absence of the inhibitor and afterwards in the presence of the inhibitor. For this reason the NCX-sensor chip is rinsed with a sequence of solutions, which activate NCX. In general, there is the possibility to test whether an inhibitor is reversible. In this case after the inhibitor application the solutions are changed back to inhibitor-free conditions. Before the experiment the solution reservoirs of the chip are filled with the following preferred solutions: washing buffer: 40 mM KCl, 100 mM NaCl, 4 mM MgCl2, 30 mM HEPES/NMG pH 7.4; non-activating solution: 140 mM KCl, 4 mM MgCl2, 30 mM HEPES/NMG pH 7.4; activating solution: 140 mM KCl, 4 mM MgCl2, 30 mM HEPES/NMG pH 7.4, 0.5 mM CaCl2. […]
For the determination of its activity, the NCX protein was treated consecutively with a washing, non-activating and activating solution and the electrical current was measured when changing from […] to activating treatment. […]

SMILES: [Ni+2] [Ni^2+]
- effect on NCX current in control experiments: diminished
